PubChem BioAssay (NCI)
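A five-concentration, 48-hour dose response in 96-well plates underlies each endpoint, interpolated linearly between surrounding concentrations. TGI marks complete inhibition of growth.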

Columns and labels:
Experiment in all cases: DTP human tumour cell line panel, 48 h
A549 NSCLC = test system: A549 NSCLC
CAKI-1 renal = test system: CAKI-1 renal
EKVX NSCLC = test system: EKVX NSCLC
HCT-15 colon = test system: HCT-15 colon
HL-60(TB) leukemia = test system: HL-60(TB) leukemia
HS 578T breast = test system: HS 578T breast
K-562 leukemia = test system: K-562 leukemia
MDA-MB-435 = test system: MDA-MB-435
MOLT-4 leukemia = test system: MOLT-4 leukemia
NCI-H23 lung = test system: NCI-H23 lung
NCI-H460 lung = test system: NCI-H460 lung
NCI/ADR-RES ovarian = test system: NCI/ADR-RES ovarian
PC-3 prostate = test system: PC-3 prostate
SF-268 CNS = test system: SF-268 CNS
SF-539 CNS = test system: SF-539 CNS
SK-MEL-2 melanoma = test system: SK-MEL-2 melanoma
SK-MEL-28 melanoma = test system: SK-MEL-28 melanoma
SN12C renal = test system: SN12C renal
SR leukemia = test system: SR leukemia
NCI-H226 lung = test system: NCI-H226 lung

Structure (SMILES) | TGI (A549 NSCLC) [µM] | TGI (CAKI-1 renal) [µM] | TGI (EKVX NSCLC) [µM] | TGI (HCT-15 colon) [µM] | TGI (HL-60(TB) leukemia) [µM] | TGI (HS 578T breast) [µM] | TGI (K-562 leukemia) [µM] | TGI (MDA-MB-435) [µM] | TGI (MOLT-4 leukemia) [µM] | TGI (NCI-H23 lung) [µM] | TGI (NCI-H460 lung) [µM] | TGI (NCI/ADR-RES ovarian) [µM] | TGI (PC-3 prostate) [µM] | TGI (SF-268 CNS) [µM] | TGI (SF-539 CNS) [µM] | TGI (SK-MEL-2 melanoma) [µM] | TGI (SK-MEL-28 melanoma) [µM] | TGI (SN12C renal) [µM] | TGI (SR leukemia) [µM] | TGI (NCI-H226 lung) [µM]
CCC1C(=O)C(O)[C@H]2[C@@H]3C(O)CC4=CC(=O)CC[C@]4(C)[C@H]3CC[C@]12C (stereo not given in full) | > 50 | > 50 | > 50 | > 50 | > 50 | > 50 | > 50 | > 50 | > 50 | > 50 | > 50 | > 50 | > 50 | > 50 | > 50 | > 50 | > 50 | > 50 | > 50 | 
O=c1[nH]c(-n2[nH]c3c(c2=O)CCCC3)nc(O)c1-c1ccccc1 |  | > 100 | > 100 | > 100 | > 100 | > 100 | > 100 | > 100 | > 100 | > 100 | > 100 | > 100 | > 100 | > 100 |  | > 100 | > 100 | > 100 | > 100 | > 100
O=C(O)[C@@H]1NC[C@H]2C(Br)=NO[C@H]21 | > 100 | > 100 | > 100 | > 100 | > 100 | > 100 |  | > 100 | > 100 | > 100 | > 100 | > 100 | > 100 | > 100 |  | > 100 | > 100 | > 100 | > 100 | > 100
COC(=O)/C=C(\S/C(=N\n1cc(C(=O)OC)c(C(=O)OC)c1-c1ccc(C)cc1)c1ccc(C)cc1)C(=O)OC | 51.8 |  | 32.8 | 7.34 | 14.7 | 62.8 |  | 13.5 | > 100 | 11.5 | > 56.6 | 17.2 | 10.3 | 40.4 | 33 | 15 | 12.5 | 11.8 | 67.3 | 3.5
O=c1[nH]c(=O)n(C2CC(O)C(CO)O2)cc1OCC1CCCCC1 (stereo not given) | > 100 | > 100 | > 100 | > 100 | > 100 | > 100 | > 100 | > 100 | > 100 | > 100 | > 100 | > 100 | > 100 | > 100 |  |  | > 100 | > 100 | > 100 | > 100
Cc1cc(-c2nc3ccc(F)cc3s2)ccc1N | > 100 | > 100 | > 100 | > 100 |  | > 100 | > 100 | > 100 | > 100 | > 100 |  | > 100 | > 100 | > 100 | > 100 | > 100 | > 100 | > 100 | > 100 | > 100
CC(C)=CCN1c2ccc(Cl)cc2NC(=O)CC1C (stereo not given) | > 100 | 43.8 | 83.5 | > 100 | > 100 | 72.1 | > 100 | 41.1 | > 100 | 74.9 | 37.6 |  | 61.1 | > 100 | 45.4 | 39.5 | > 100 | 58 | > 100 | 46.9
CN(C)Cc1cc(C=O)cc(CN(C)C)c1O | > 100 |  | > 100 | > 100 | > 100 | > 100 | > 100 | > 100 | > 100 | 67.4 | > 100 | > 100 | > 100 | > 100 | > 100 |  | > 100 | > 100 | > 100 | > 100
CCOP(=O)(OCC)[C@H]1OC(C)(C)O[C@@H]1CO | > 100 | > 100 | > 100 | > 100 | > 100 | > 100 |  | > 100 | > 100 | > 100 | > 100 | > 100 | > 100 | > 100 | > 100 | > 100 | > 100 | > 100 |  | 
CC(=O)O[C@H]1CCC2[C@@H]3CCC4Cc5nc6c(nc5C[C@]4(C)C3CC[C@@]21C)CC1CC[C@@H]2C(CC[C@@]3(C)C2CC[C@@H]3C(C)CCCC(C)C)[C@@]1(C)C6 (stereo not given in full) | > 100 |  | > 100 | > 100 | > 100 | > 100 | > 100 | > 100 | > 100 | > 100 | > 100 | > 100 | > 100 | > 100 | > 100 | > 100 | > 100 | > 100 |  | > 100
CNC(=O)CN(C)C(=O)CCC(=O)N(C)C | > 100 | > 100 | > 100 | > 100 | > 100 | > 100 | > 100 | > 100 | > 100 | > 100 | > 100 | > 100 | > 100 | > 100 | > 100 | > 100 | > 100 | > 100 |  | > 100
COC(=O)C1C2CC3C1C3C2C(=O)OC (stereo not given) | > 100 | > 100 | > 100 | > 100 |  | > 100 | > 100 | > 100 | > 100 | > 100 | > 100 | > 100 | > 100 | > 100 | > 100 | > 100 | > 100 | > 100 |  | > 100
Cc1ccc(C)c2c1CC(Cc1ccccc1C(=O)O)C2=O (stereo not given) | > 100 | > 100 | > 100 | > 100 | > 100 | > 100 | > 100 | > 100 | > 100 | > 100 | > 100 | > 100 | > 100 | > 100 | > 100 | > 100 | > 100 | > 100 |  | > 100
O[C@@H]1C[C@H]2N3CC[C@@]2(c2cc4c(cc2C3)OCO4)[C@H]2O[C@@H]12 | > 100 | > 100 | > 100 | > 100 | > 100 | > 100 | > 100 | > 100 | > 100 | > 100 | > 100 | > 100 | > 100 | > 100 | 0.041 | > 100 | > 100 | > 100 |  | 0.0792
Nc1ncnc2c1ncn2[C@H]1CC[C@@H](NO)C1 | > 100 | > 100 | > 100 | > 100 |  | > 100 | > 100 | > 100 | > 100 | > 100 | > 100 | > 100 | > 100 | > 100 | > 100 | > 100 | > 100 | > 100 | > 100 | > 100
CC(=O)OCC(OC(C)=O)C(OC(C)=O)C(OC(C)=O)C(C=NN(C(C)=O)S(=O)(=O)c1ccc(/C=C2\NC(=O)NC2=O)cc1)OC(C)=O (stereo not given) | > 100 | > 100 | > 100 | > 100 |  | > 100 | > 100 | > 100 | > 100 | > 100 | > 100 | > 100 | > 100 | > 100 |  | > 100 |  | > 100 |  | > 100
CSc1nc(SC)c2ncn(C3CC(Oc4ccc(C)cc4)C(COc4ccc(C)cc4)O3)c2n1 (stereo not given) | > 100 | > 100 | > 100 | > 100 | > 100 | > 100 |  | > 100 |  | > 100 | > 100 | > 100 | > 100 | > 100 | > 100 | > 100 | > 100 | > 100 |  | > 100
CN1CC[C@]2(c3cccc(O)c3)CC(=O)/C(=C/c3ccc(Cl)c(Cl)c3)[C@@H]1C2 | 3.36 | 2.32 | 3.03 | 2.52 | 0.464 | 6.59 | 1.1 | 1.4 | 0.71 | 4.33 | 3.39 | 6.76 | 1.42 | 3.66 | 4.52 |  | 3.28 | 2.29 | 10.3 | 4.7
CC(C)SC(NC(=O)C1C(C)(C)CCC1(C)C)C(=O)O (stereo not given) | > 100 |  | > 100 | > 100 | > 100 | > 100 | > 100 | > 100 |  | > 100 | > 100 | > 100 | > 100 | > 100 | > 100 | > 100 | > 100 | > 100 |  | > 100
O=C1C(=Cc2cccc(O)c2)N=C(c2ccccc2)N1n1c(-c2ccccc2)nc2ccccc2c1=O | > 100 | 85.8 | > 100 | > 100 | 54 | 76.8 | > 100 | > 100 | 44.2 | 88.5 | 59.8 | > 100 | 58.7 | 87.5 | 51.3 |  | > 100 | > 100 | 60.5 | 18.9
Cc1nc2ccccc2c(=O)n1NC(=S)Nc1ccc(Cl)cc1[N+](=O)[O-] | > 100 | > 100 | > 100 | > 100 | > 100 | > 100 | > 100 | > 100 | > 100 | > 100 | > 100 | > 100 | > 100 | > 100 | > 100 | > 100 | > 100 | > 100 | > 100 | 
CN(CC(=O)O)c1ncc2c(n1)-c1ccccc1OC2 | > 100 | > 100 | > 100 | > 100 | > 100 | > 100 | > 100 | > 100 | > 100 | > 100 | > 100 | > 100 | > 100 | > 100 | > 100 | > 100 | > 100 | > 100 | > 100 | 
COc1ccc2c(ccc3c(COC(=O)NC(C)C)c(COC(=O)NC(C)C)n(C)c32)c1 | 55.2 | 8.56 | 44.8 | 28.9 |  | 38.2 | > 100 | 44.1 | > 100 | 16 | 2.04 | 22.9 | 24.3 | 29.7 | 20.9 | 32.5 |  |  | > 100 | 23.2
COC(=O)/C=C\C(C#N)(C#N)N=Cc1ccc(Br)s1 | 45.4 | 5.94 | 26.4 | 6.63 | 5.04 | > 85.5 | > 100 | 13.9 | > 100 | 46.9 | 48 | 45.2 | 26.8 | 40.2 |  | 33.2 | 33.7 | 35.1 |  | 12.4
CC(=O)N1CC(=O)N2C(=O)/C(=C/c3ccc(Cl)cc3)N=C12 | > 100 | > 100 | > 100 | > 100 | 56.4 | > 100 | > 100 | > 100 | > 100 | > 100 | > 100 | > 100 | > 100 | > 100 | > 100 | > 100 | > 100 | > 100 |  | > 100
